Source: patent publication US20220195432A9 (priority 2020, published 2022)

Tested on: SARS-CoV2
Assay: SARS-CoV2 infection of human ACE2 mice, paquinimod nasal drop group versus control
Assay type: in vivo
Conditions: human ACE2 mice, paquinimod nasal drop group compared with control group, FIG. 17

SMILES: CCc1cccc2c1c(O)c(C(=O)N(CC)c1ccccc1)c(=O)n2C [paquinimod]
- resistance to SRAS-CoV2: significantly more resistant
